The record followed here is PMC5077133, “Towards Development of Small Molecule Lipid II Inhibitors as Novel Antibiotics” (PLoS ONE, 2016).

A short description of data set [1]: Lipid II binding by Surface Plasmon Resonance. The note with it: SPR, immobilized 3-Lipid II, 25°C. On the procedure:
Short-chain water-soluble Lipid II containing a lipid tail of three isoprene units was generated and purified essentially as described. Typically, M. flavus vesicles (120 μmol lipid-Pi) were incubated together with 500 μmol UDP-GlcNAc, 500 μmol UDP-MurNAC-pentapeptide and 400 μmol farnesyl phosphate in 100 mM Tris-HCl pH 8.0, 5 mM MgCl2. The incubation lasted two hours at room temperature for 3-P. The synthesis of 3-Lipid II was followed using RP-8 reversed phase TLC (Merck) developed in 75% methanol. For purification, the membranes were removed by centrifugation at 40,000 x g and the supernatant was collected and loaded on a C18 HPLC column and eluted with a linear gradient from 50 mM ammonium bicarbonate to 100% methanol in 30 minutes. Farnesyl-Lipid II (3-Lipid II) eluted at approximately 60% methanol. Its identity was confirmed by mass spectroscopy. Surface Plasmon Resonance binding experiments were carried out on a BIAcore T100 system (BIAcore Inc., Piscataway, NY) at 25°C. The assay buffer was 10 mM HEPES, 150 mM NaCl, 0.05% surfactant P20, pH 7.4 (± 3 mM EDTA) supplemented with 10% DMSO. 3-Lipid II (50 RUs) was immobilized on CM5 sensor chips using the amine-coupling chemistry recommended by the manufacturer. For initial determination of binding, compounds were introduced into the flow-cells (30 μl/min) in the running buffer at 10 μM. Resonance signals were corrected for nonspecific binding by subtracting the background of the control flow-cell. After each analysis, the sensor chip surfaces were regenerated with 50 mM NaOH for 30 s at a flow rate 100 μl/min, and equilibrated with the buffer prior to next injection. For binding kinetics studies, binding isotherms were analyzed with manufacturer-supplied software for BIAcore T100.

For the next data set, the system named is E. aerogenes ATCC 13048. Briefly: Antibacterial activity (MIC, broth dilution). It counts as cell-based. To be noted: CLSI. The method, then:
(§1) Determination of the Minimal Inhibitory Concentrations (MIC) by dilution was carried out by broth dilution according to CLSI standards.
In general terms: Dilution methods test growth across graded concentrations, often in twofold steps.

In the next data set the test system is E. faecium F118 (VRE). Nature of the data set: Antibacterial activity (MIC, broth dilution). The note with it: CLSI, in µg/mL. It counts as cell-based. On the procedure:
as §1

For a further data set, the system named is S. aureus MRSA 1094. Nature of the data set: Antibacterial activity (MIC, broth dilution). The note with it: CLSI. It counts as cell-based. The method, then:
as §1

In data set [2] the test system is S. aureus HFH-30123 (MRSA). Nature of the data set: Antibacterial activity (MIC, broth dilution). The data set is classed as cell-based. To be noted: CLSI. On the procedure: as §1
The next data set relates to E. cloacae ATCC 13047. Briefly: Antibacterial activity (MIC, broth dilution). The data set is classed as cell-based. To be noted: CLSI. The method, then: as §1
For a further data set, the system named is P. aeruginosa ATCC 27853. Nature of the data set: Antibacterial activity (MIC, broth dilution). It counts as cell-based. The note with it: CLSI. The method, then:
as §1

Data set [3] relates to K. pneumoniae NR-15410 (KPC). Briefly: Antibacterial activity (MIC, broth dilution). The data set is classed as cell-based. The note with it: CLSI. The method, then: as §1
The test system of data set [4] is K. pneumoniae NR-15411 (KPC). Nature of the data set: Antibacterial activity (MIC, broth dilution). It counts as cell-based. The note with it: CLSI. On the procedure:
as §1

The test system of another data set is P. aeruginosa PA01. Briefly: Antibacterial activity (MIC, broth dilution). The data set is classed as cell-based. To be noted: CLSI. The method, then:
as §1

The next data set deals with P. aeruginosa X13273. Briefly: Antibacterial activity (MIC, broth dilution). The data set is classed as cell-based. The note with it: CLSI, in µg/mL. On the procedure: as §1
For another data set, the system named is E. faecium EF1509 (VRE). Briefly: Antibacterial activity (MIC, broth dilution). The note with it: CLSI, in µg/mL. It counts as cell-based. On the procedure:
as §1

The next data set concerns A. baumanii ATCC 19606. Briefly: Antibacterial activity (MIC, broth dilution). The note with it: CLSI, in µg/mL. The data set is classed as cell-based, Acinetobacter baumanii.
Description: Staphylococcus aureus ATCC 29213, Escherichia coli ATCC 25922, Enterococcus faecalis ATCC 29212, Streptococcus pneumonia ATCC 49619 and Acinetobacter baumanii ATCC 19606 were obtained from Microbiologics (St. Cloud, MN). E. faecalis ATCC 51575, ATCC 51299 and REMEL C99707 and E. faecium ATCC 51559 (MDR), REMEL IH79985 and REMEL C110914 were generously provided by the Laboratory of Pathology, University of Maryland Baltimore School of Medicine. Unless stated otherwise, chemicals and reagents were purchased from Sigma.
as §1

Another data set has as its system HeLa cells. Nature of the data set: Cytotoxicity against mammalian cells (MTS assay). The data set is classed as cell-based. On the procedure: The cytotoxicity concentration of antibacterial compounds that produces half maximal decrease in viability (CC50) against mammalian cells (HeLa, ATCC CCL-2.2) was determined as described. The effect of compounds on HeLa cell viability was assessed in triplicate by measuring the mitochondrial activity using MTS assays according to the manufacturer’s instructions (Cell Titer 96 proliferation assay, Promega). The cells were incubated for 72 hours in RPMI1640 medium containing the compounds at final concentrations ranging from 64 to 0.125 μg/ml. CC50 was determined using a standard curve of serially diluted untreated cells in each experiment.
In general terms: Tetrazolium assays rely on reduction of a dye to a coloured formazan, in cell work by metabolically active cells.

As usually defined, the Kd is the concentration at which binding is half-saturated. A higher Kd goes with lower affinity. As for `Cc1ccc(-c2cc(/C=C/c3cc4c5c(c3)CCCN5CCC4)[o+]c(-c3ccc(C)cc3)c2)cc1.F[B-](F)(F)F` [6jc65-1], in data set [1], the Kd is 2.17 ± 0.2 µM. In the data set on E. aerogenes ATCC 13048, the Antibacterial activity (MIC) E. aerogenes ATCC 13048 was 32 µg/mL. The “Antibacterial activity (MIC) E. faecium F118 (VRE)” value with E. faecium F118 (VRE) came to 4. This compound yielded an Antibacterial activity (MIC) S. aureus MRSA 1094 in the data set with S. aureus MRSA 1094 of 2.83 µg/mL. Also, the Antibacterial activity (MIC) S. aureus HFH-30123 (MRSA) in data set [2] stood at 2 µg/mL. In the data set on E. cloacae ATCC 13047, this compound had an Antibacterial activity (MIC) E. cloacae ATCC 13047 of 64 µg/mL. The compound also showed an Antibacterial activity (MIC) P. aeruginosa ATCC 27853 with P. aeruginosa ATCC 27853 of 64 µg/mL. Further, the Antibacterial activity (MIC) K. pneumoniae NR-15410 (KPC) in data set [3] was determined as 64 µg/mL. In [4], this compound showed an Antibacterial activity (MIC) K. pneumoniae NR-15411 (KPC) of at least 64 µg/mL. The Antibacterial activity (MIC) P. aeruginosa PA01 in the data set with P. aeruginosa PA01 was 64 µg/mL. Moreover, in the data set on P. aeruginosa X13273, the “Antibacterial activity (MIC) P. aeruginosa X13273” value was found to be 64. For the same compound, the “Antibacterial activity (MIC) E. faecium EF1509 (VRE)” value with E. faecium EF1509 (VRE) was 2. The “Antibacterial activity (MIC) A. baumanii ATCC 19606” value with A. baumanii ATCC 19606 is 11.31. The “CC50% (72 h HeLa cells)” value in the data set with HeLa cells is “<.78125”.

`CN(C)c1ccc(/C=C/c2cc(-c3ccccc3)cc(-c3ccccc3)[o+]2)cc1.F[B-](F)(F)F` [6jc39] returned a Kd in data set [1] of 39 ± 4 µM. The Antibacterial activity (MIC) E. aerogenes ATCC 13048 with E. aerogenes ATCC 13048 was at least 64 µg/mL. Moreover, the “Antibacterial activity (MIC) E. faecium F118 (VRE)” value in the data set on E. faecium F118 (VRE) is recorded as 4. For the same compound, the Antibacterial activity (MIC) S. aureus MRSA 1094 with S. aureus MRSA 1094 worked out at 2 µg/mL. In data set [2], this compound displayed an Antibacterial activity (MIC) S. aureus HFH-30123 (MRSA) of 4 µg/mL. For the same compound, the Antibacterial activity (MIC) E. cloacae ATCC 13047 in the data set on E. cloacae ATCC 13047 was at least 64 µg/mL. This compound also returned an Antibacterial activity (MIC) P. aeruginosa ATCC 27853 with P. aeruginosa ATCC 27853 of at least 64 µg/mL. The same compound had an Antibacterial activity (MIC) K. pneumoniae NR-15410 (KPC) in [3] of 64 µg/mL. In data set [4], the Antibacterial activity (MIC) K. pneumoniae NR-15411 (KPC) was at least 64 µg/mL. Also, the Antibacterial activity (MIC) P. aeruginosa PA01 with P. aeruginosa PA01 was at least 64 µg/mL. Further, the “Antibacterial activity (MIC) P. aeruginosa X13273” value with P. aeruginosa X13273 is given as “>=64”. In addition, the “Antibacterial activity (MIC) E. faecium EF1509 (VRE)” value in the data set on E. faecium EF1509 (VRE) is listed as 4. Further, the “Antibacterial activity (MIC) A. baumanii ATCC 19606” value with A. baumanii ATCC 19606 is given as 16. The “CC50% (72 h HeLa cells)” value in the data set with HeLa cells came to 1.31.

In data set [1], `CN(C)c1ccc(/C=C/C=C/c2cc(-c3ccccc3)cc(-c3ccccc3)[o+]2)cc1.F[B-](F)(F)F` [6jc43-1] returned a Kd of 62 ± 6 µM. Moreover, in the data set with E. aerogenes ATCC 13048, the Antibacterial activity (MIC) E. aerogenes ATCC 13048 was at least 64 µg/mL. In addition, the “Antibacterial activity (MIC) E. faecium F118 (VRE)” value with E. faecium F118 (VRE) amounted to 4. Besides, the Antibacterial activity (MIC) S. aureus MRSA 1094 with S. aureus MRSA 1094 stood at 4 µg/mL. This compound came in with an Antibacterial activity (MIC) S. aureus HFH-30123 (MRSA) in data set [2] of 4 µg/mL. This compound also came in with an Antibacterial activity (MIC) E. cloacae ATCC 13047 in the data set with E. cloacae ATCC 13047 of at least 64 µg/mL. In addition, the Antibacterial activity (MIC) P. aeruginosa ATCC 27853 with P. aeruginosa ATCC 27853 was at least 64 µg/mL. In data set [3], this compound showed an Antibacterial activity (MIC) K. pneumoniae NR-15410 (KPC) of at least 64 µg/mL. This compound also registered an Antibacterial activity (MIC) K. pneumoniae NR-15411 (KPC) in [4] of at least 64 µg/mL. In the data set with P. aeruginosa PA01, this compound displayed an Antibacterial activity (MIC) P. aeruginosa PA01 of at least 64 µg/mL. Also, in the data set on P. aeruginosa X13273, the “Antibacterial activity (MIC) P. aeruginosa X13273” value is on record as “>=64”. Also, in the data set with E. faecium EF1509 (VRE), the “Antibacterial activity (MIC) E. faecium EF1509 (VRE)” value was found to be 4. Besides, the “Antibacterial activity (MIC) A. baumanii ATCC 19606” value in the data set on A. baumanii ATCC 19606 is given as 45.25. Further, the “CC50% (72 h HeLa cells)” value in the data set on HeLa cells is 0.93.

`Cc1ccc(-c2cc(/C=C/c3c[nH]c4ccccc34)[o+]c(-c3ccc(C)cc3)c2)cc1.F[B-](F)(F)F` [6jc-53-2]: binding in data set [1] was put at a Kd of 10 ± 3 µM. The same compound yielded an Antibacterial activity (MIC) E. aerogenes ATCC 13048 in the data set on E. aerogenes ATCC 13048 of at least 64 µg/mL. Besides, the “Antibacterial activity (MIC) E. faecium F118 (VRE)” value in the data set on E. faecium F118 (VRE) is recorded as 5.657. Further, the Antibacterial activity (MIC) S. aureus MRSA 1094 with S. aureus MRSA 1094 was 2 µg/mL. In data set [2], the Antibacterial activity (MIC) S. aureus HFH-30123 (MRSA) is 4 µg/mL. In the data set with E. cloacae ATCC 13047, this compound yielded an Antibacterial activity (MIC) E. cloacae ATCC 13047 of at least 64 µg/mL. For the same compound, the Antibacterial activity (MIC) P. aeruginosa ATCC 27853 with P. aeruginosa ATCC 27853 was at least 64 µg/mL. The compound also gave an Antibacterial activity (MIC) K. pneumoniae NR-15410 (KPC) in data set [3] of at least 64 µg/mL. In [4], this compound showed an Antibacterial activity (MIC) K. pneumoniae NR-15411 (KPC) of at least 64 µg/mL. The Antibacterial activity (MIC) P. aeruginosa PA01 with P. aeruginosa PA01 was at least 64 µg/mL. For the same compound, in the data set with P. aeruginosa X13273, the “Antibacterial activity (MIC) P. aeruginosa X13273” value is on record as “>=64”. Besides, the “Antibacterial activity (MIC) E. faecium EF1509 (VRE)” value in the data set with E. faecium EF1509 (VRE) was 8. For the same compound, the “Antibacterial activity (MIC) A. baumanii ATCC 19606” value with A. baumanii ATCC 19606 is on record as “>=64”. The “CC50% (72 h HeLa cells)” value in the data set with HeLa cells was 1.12.
